Source: patent US11110082B2, “Tyrosine kinase inhibitors” (Rigel Pharmaceuticals, Inc., priority 2016, dated 2021)

Target: T1, MerTK (Homo sapiens, UniProt Q12866)
T1 construct: Seed HUVECs (10K cells/well) in EBM-2 complete media; host or cells: HUVEC (primary human umbilical vein endothelial cells)
T1 sequence (Q12866 21-999): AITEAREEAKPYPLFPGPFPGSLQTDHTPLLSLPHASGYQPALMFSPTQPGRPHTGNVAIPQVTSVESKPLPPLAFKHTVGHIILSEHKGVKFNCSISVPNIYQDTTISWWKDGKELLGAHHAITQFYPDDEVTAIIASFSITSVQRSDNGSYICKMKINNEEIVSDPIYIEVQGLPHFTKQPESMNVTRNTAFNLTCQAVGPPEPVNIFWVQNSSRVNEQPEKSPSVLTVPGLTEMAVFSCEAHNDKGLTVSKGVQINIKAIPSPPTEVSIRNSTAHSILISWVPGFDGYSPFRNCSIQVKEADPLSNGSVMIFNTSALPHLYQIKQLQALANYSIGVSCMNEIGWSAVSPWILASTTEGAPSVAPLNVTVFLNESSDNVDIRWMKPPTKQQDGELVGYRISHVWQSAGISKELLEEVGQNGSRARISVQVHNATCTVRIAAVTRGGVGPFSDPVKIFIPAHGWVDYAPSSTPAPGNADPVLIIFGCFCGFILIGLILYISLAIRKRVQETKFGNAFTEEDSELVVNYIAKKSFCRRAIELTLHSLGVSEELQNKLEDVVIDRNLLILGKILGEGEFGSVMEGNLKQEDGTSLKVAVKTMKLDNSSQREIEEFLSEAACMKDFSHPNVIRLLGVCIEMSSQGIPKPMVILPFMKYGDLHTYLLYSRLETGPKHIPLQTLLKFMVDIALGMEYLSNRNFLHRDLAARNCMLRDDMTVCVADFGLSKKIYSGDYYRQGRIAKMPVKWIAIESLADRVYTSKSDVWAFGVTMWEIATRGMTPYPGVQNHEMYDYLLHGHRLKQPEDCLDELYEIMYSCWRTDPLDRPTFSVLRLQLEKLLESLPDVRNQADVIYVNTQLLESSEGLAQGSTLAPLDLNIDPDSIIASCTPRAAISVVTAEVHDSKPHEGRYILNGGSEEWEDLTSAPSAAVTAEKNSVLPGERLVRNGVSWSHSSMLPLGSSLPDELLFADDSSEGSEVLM
Experiment: PAKT HTRF-HUVEC assay (pAkt Ser473 HTRF after anti-human MerTK-XL stimulation)
Type: cell-based
Details: HUVEC cells, 1 hour compound, stimulated with anti-human MerTK-XL 1 ug/mL for 10 minutes, read-out: inhibition of MerTK
How it was run: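 HUVECs starved 3-4 h in basal medium, preincubated with compound 1 h at 37° C, then stimulated 10 min with cross-linked anti-human MerTK antibody (final 1 ug/mL). Lysates read for pAkt (Ser473) by HTRF; EC50 from curve fitting.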

Structure (SMILES)	EC50
CC(C)N1CCN(c2ccc3c(c2)c(=O)n([C@H]2CC[C@H](O)CC2)c2nc(NCC4CC4)ncc32)CC1 [Compound 176]	0.0975 µM
CCCCNc1ncc2c3ccc(N4CCN(C)CC4)cc3c(=O)n([C@H]3CC[C@@H](O)CC3)c2n1 [Compound 63, cis-3-(Butylamino)-5-(4-hydroxycyclohexyl)-8-(4-methylpiperazin-1-yl)pyrimido[4,5-c]isoquinolin-6(5H)-one]	0.139 µM
CCC[C@H](C)Nc1ncc2c3ccc(CN4CCC5(CC4)COC5)cc3c(=O)n([C@H]3CC[C@H](O)CC3)c2n1 [Compound 214, trans-8-((2-oxa-7-azaspiro[3.5]nonan-7-yl)methyl)-5-(4-hydroxycyclohexyl)-3-(((5)-pentan-2-yl)amino)pyrimido[4,5-c]isoquinolin-6(5H)-one]	0.0105 µM
CCC(F)(F)CNc1ncc2c3ccc(N4CCN(C)CC4)cc3c(=O)n([C@H]3CC[C@H](O)CC3)c2n1 [Compound 93, trans-3-((2,2-Difluorobutyl)amino)-5-(4-hydroxycyclohexyl)-8-(4-methylpiperazin-1-yl)pyrimido[4,5-c]isoquinolin-6(5H)-one]	0.358 µM
CCC1(CNc2ncc3c4ccc(CN5CCOCC5)cc4c(=O)n([C@H]4CC[C@H](O)CC4)c3n2)CCC1 [Compound 19, trans-3-(((1-Ethylcyclobutyl)methyl)amino)-5-(4-hydroxycyclohexyl)-8-(morpholinomethyl)pyrimido [4,5-c]isoquinolin-6(5H)-one]	0.697 µM
CCCCNc1ncc2c3ccccc3c(=O)n(C3CC4(CC(O)C4)C3)c2n1 (stereo not drawn) [Compound 112, 3-(Butylamino)-5-(6-hydroxyspiro[3,3]heptan-2-yl)pyrimido[4,5-c]isoquinolin-6(5H)-one]	0.472 µM
O=c1c2cc(N3CCC(N4CCCC4)CC3)ccc2c2cnc(NCC3CC3)nc2n1[C@H]1CC[C@H](O)CC1 [Compound 99, trans-3-((Cyclopropylmethyl)amino)-5-(4-hydroxycyclohexyl)-8-(4-(pyrrolidin-1-yl)piperidin-1-yl)pyrimido[4,5-c]isoquinolin-6(5H)-one]	0.0948 µM

Continued, values first:

EC50	Structure (SMILES)
0.221 µM	O=c1c2cc(CN3CCS(=O)(=O)CC3)ccc2c2cnc(NCC3CC3)nc2n1[C@H]1CC[C@H](O)CC1 [Compound 49, trans-3-((Cyclopropylmethyl)amino)-8-((1,1-dioxidothiomorpholino)methyl)-5-(4-hydroxycyclohexyl)pyrimido [4,5-c]isoquinolin-6(5H)-one]
0.0764 µM	CN1CCC(Nc2ccc3c(c2)c(=O)n([C@H]2CC[C@H](O)CC2)c2nc(NCC4CC4)ncc32)CC1 [Compound 189, trans-3-((Cyclopropylmethyl)amino)-5-(4-hydroxycyclohexyl)-8-((1-methylpiperidin-4-yl)amino)pyrimido[4,5-c]isoquinolin-6(5H)-one]
0.0513 µM	O=c1c2cc(CN3CCN(CC(F)F)CC3)ccc2c2cnc(NCC3CC3)nc2n1[C@H]1CC[C@H](O)CC1 [Compound 43, trans-3-((Cyclopropylmethyl)amino)-8-((4-(2,2-difluoroethyl)piperazin-1-yl)methyl)-5-(4-hydroxycyclohexyl)pyrimido[4,5-c]isoquinolin-6(5H)-one]
13.5 µM	O=c1c2cc(CN3CCC(c4nnn[nH]4)CC3)ccc2c2cnc(NCC3CC3)nc2n1C1CCC(O)CC1 (stereo not drawn) [Compound 143, 8-((4-(1H-tetrazol-5-yl)piperidin-1-yl)methyl)-3-((cyclopropylmethyl)amino)-5-((1s,4s)-4-hydroxycyclohexyl)pyrimido[4,5-c]isoquinolin-6(5H)-one]
0.354 µM	O=c1c2cc(N3CCN(CC(F)F)CC3)ccc2c2cnc(NCC3CC3)nc2n1[C@H]1CC[C@H](O)CC1 [Compound 105, trans-3-((Cyclopropylmethyl)amino)-8-(4-(2,2-difluoroethyl)piperazin-1-yl)-5-(4-hydroxycyclohexyl)pyrimido [4,5-c]isoquinolin-6(5H)-one]
